Assay results reported in patent publication US5087702A, “Microbial transformation process for producing an antihypertensive product” (Merck & Co., Inc., priority 1991, dated 1992).

Target: T1, Angiotensin II (A II) receptor (Oryctolagus cuniculus, UniProt P34976)
T1 construct: membrane preparation derived from rabbit aortae; tissue Pel-Freeze Biologicals; host or cells: frozen rabbit aortae, membrane preparation
T1 sequence (P34976 1-359): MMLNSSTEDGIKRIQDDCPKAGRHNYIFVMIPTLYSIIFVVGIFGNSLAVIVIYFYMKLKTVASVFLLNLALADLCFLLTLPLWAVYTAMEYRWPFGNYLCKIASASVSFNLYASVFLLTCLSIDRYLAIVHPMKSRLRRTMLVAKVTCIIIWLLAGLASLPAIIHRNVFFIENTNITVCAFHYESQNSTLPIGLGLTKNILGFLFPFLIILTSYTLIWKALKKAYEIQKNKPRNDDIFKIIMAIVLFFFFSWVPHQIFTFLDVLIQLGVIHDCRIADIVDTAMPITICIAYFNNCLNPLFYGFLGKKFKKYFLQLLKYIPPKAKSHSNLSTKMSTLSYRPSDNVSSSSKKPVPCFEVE
Test: Receptor binding assay using rabbit aortae membrane preparation (displacement of 125I-Sar1Ile8-angiotensin II; the "IC50" assay)
Conditions: membrane preparation derived from rabbit aortae; 37° C., 90 minutes; read-out: inhibitory concentration (IC50) giving 50% displacement of the total specifically bound 125I-Sar1 Ile8-angiotensin II
Protocol: This assay is also referred to herein as the "IC50 " assay.
RECEPTOR BINDING ASSAY USING RABBIT AORTAE MEMBRANE PREPARATION
Three frozen rabbit aortae (obtained from Pel-Freeze Biologicals) were suspended in 5 mM Tris-0.25M Sucrose, pH 7.4 buffer (50 ml) homogenized, and then centifuged. The mixture was filtered through a cheesecloth and the supernatant was centrifuged for 30 minutes at 20,000 rpm at 4° C. The pellet thus obtained was resuspended in 30 ml of 50 mM Tris-5 mM MgCl2 buffer containing 0.2% Bovine Serum Albumin and 0.2 mg/ml Bacitration and the suspension was used for 100 assay tubes. Samples tested for screening were done in duplicate. To the membrane preparation (0.25 ml) there was added ^125 I-Sar^1 Ile^8 -angiotensin II [obtained from New England Nuclear] (10 ul; 20,000 cpm) with or without the test sample and the mixture was incubated at 37° C. for 90 minutes. The mixture was then diluted with ice-cold 50 mM Tris-0.9% NaCl, pH 7.4 (4 ml) and filtered through a glass fiber filter (GF/B Whatman 2.4" diameter). The filter was soaked in scintillation cocktail (10 ml) and counted for radioactivity using Packard 2660 Tricarb liquid scintillation counter. […]

IC50: < 50 µM
SMILES: CCCc1nc2c(C)ccnc2n1Cc1ccc(-c2ccccc2-c2nnnn2CC2=CC(O)C(O)C(O)C2=O)cc1 (stereo not shown) [Compound I]
